One assay is described as follows: cells. It is filed as functional, cell-based. The settings on record: HEK-CNG.
Another assay deals with T1, Galanin receptor type 3 (Homo sapiens, UniProt O60755).
T1 sequence (O60755 whole entry): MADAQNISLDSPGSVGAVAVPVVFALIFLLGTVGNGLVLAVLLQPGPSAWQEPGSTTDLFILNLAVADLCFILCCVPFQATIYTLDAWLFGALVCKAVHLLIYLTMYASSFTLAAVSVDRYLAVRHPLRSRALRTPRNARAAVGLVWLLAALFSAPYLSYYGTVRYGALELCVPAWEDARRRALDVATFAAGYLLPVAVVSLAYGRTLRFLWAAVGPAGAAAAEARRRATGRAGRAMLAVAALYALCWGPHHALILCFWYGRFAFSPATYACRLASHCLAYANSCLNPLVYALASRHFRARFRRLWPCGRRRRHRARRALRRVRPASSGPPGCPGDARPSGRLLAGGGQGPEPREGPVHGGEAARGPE
Nature of the assay: Fluorescence-based cell-based primary high throughput dose response assay to identify antagonists of the Galanin Receptor 3 (GalR3). It is filed as functional.

In assay [1] the target is T2, High affinity choline transporter 1 (Homo sapiens, UniProt Q9GZV3).
T2 sequence (Q9GZV3 whole entry): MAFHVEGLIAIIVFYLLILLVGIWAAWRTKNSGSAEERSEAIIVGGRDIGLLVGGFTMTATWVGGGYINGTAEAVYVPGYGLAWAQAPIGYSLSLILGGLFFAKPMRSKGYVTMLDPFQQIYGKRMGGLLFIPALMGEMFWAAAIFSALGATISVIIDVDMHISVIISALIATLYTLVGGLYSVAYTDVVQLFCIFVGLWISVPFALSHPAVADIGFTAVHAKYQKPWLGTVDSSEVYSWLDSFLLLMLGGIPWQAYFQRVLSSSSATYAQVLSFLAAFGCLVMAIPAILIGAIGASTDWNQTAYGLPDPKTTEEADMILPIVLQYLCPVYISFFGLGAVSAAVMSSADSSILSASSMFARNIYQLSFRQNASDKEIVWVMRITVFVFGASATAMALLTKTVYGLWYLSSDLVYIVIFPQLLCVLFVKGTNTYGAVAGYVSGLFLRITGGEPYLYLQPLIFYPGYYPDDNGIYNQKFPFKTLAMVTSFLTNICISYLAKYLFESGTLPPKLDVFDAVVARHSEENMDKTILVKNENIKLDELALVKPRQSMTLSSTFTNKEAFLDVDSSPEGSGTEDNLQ
Nature of the assay: CHT inhibitors, dose response, cell-based, 10-point CRC, membrane potential dye (AID 588401).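 Further: membrane potential dye fluorescence of choline-evoked depolarization via CHT.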 It is filed as functional.

The target of assay [2] is T2, High affinity choline transporter 1. Nature of the assay: CHT inhibitors, dose response, cell-based, 5-point CRC, membrane potential dye (AID 504840). The format is functional.
Assay [3] deals with Ras and Rab interactor 1/Tyrosine-protein kinase ABL1 (Homo sapiens, UniProt P00519+Q13671). The format is functional.
Assay [4] addresses Melanin-concentrating hormone receptor 1 (Homo sapiens, UniProt Q99705). Nature of the assay: Late-stage fluorescence-based counterscreen for antagonists of the G-protein coupled receptor 7 (GPR7): cell-based dose response assay to identify antagonists of the melanin-concentrating hormone receptor 1 (MCHR1) Set 5. It is filed as functional.
Assay [5] has as its target T3, Neuropeptides B/W receptor type 1 (Homo sapiens, UniProt P48145).
T3 sequence (P48145 whole entry): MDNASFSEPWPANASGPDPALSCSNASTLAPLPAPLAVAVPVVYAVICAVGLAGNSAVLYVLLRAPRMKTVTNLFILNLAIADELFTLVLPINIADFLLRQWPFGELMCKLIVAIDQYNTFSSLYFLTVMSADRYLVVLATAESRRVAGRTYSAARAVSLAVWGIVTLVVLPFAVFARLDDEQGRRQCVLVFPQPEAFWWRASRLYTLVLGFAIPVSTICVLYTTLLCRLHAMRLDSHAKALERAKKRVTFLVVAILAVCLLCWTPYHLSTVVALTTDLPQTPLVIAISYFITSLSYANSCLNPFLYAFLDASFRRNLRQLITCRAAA
Nature of the assay: GPR7 antagonist potency, late-stage follow-up, cell-based, fluorescence, dose response, set 5 (AID 588566). It is filed as functional.

For assay [6], the target named is T4, Apoptotic protease-activating factor 1 (Homo sapiens, UniProt O14727).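 Further: caspase-3 cleavage of fluorogenic Rh110 DEVD substrate downstream of apoptosome activation.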
T4 sequence (O14727 whole entry): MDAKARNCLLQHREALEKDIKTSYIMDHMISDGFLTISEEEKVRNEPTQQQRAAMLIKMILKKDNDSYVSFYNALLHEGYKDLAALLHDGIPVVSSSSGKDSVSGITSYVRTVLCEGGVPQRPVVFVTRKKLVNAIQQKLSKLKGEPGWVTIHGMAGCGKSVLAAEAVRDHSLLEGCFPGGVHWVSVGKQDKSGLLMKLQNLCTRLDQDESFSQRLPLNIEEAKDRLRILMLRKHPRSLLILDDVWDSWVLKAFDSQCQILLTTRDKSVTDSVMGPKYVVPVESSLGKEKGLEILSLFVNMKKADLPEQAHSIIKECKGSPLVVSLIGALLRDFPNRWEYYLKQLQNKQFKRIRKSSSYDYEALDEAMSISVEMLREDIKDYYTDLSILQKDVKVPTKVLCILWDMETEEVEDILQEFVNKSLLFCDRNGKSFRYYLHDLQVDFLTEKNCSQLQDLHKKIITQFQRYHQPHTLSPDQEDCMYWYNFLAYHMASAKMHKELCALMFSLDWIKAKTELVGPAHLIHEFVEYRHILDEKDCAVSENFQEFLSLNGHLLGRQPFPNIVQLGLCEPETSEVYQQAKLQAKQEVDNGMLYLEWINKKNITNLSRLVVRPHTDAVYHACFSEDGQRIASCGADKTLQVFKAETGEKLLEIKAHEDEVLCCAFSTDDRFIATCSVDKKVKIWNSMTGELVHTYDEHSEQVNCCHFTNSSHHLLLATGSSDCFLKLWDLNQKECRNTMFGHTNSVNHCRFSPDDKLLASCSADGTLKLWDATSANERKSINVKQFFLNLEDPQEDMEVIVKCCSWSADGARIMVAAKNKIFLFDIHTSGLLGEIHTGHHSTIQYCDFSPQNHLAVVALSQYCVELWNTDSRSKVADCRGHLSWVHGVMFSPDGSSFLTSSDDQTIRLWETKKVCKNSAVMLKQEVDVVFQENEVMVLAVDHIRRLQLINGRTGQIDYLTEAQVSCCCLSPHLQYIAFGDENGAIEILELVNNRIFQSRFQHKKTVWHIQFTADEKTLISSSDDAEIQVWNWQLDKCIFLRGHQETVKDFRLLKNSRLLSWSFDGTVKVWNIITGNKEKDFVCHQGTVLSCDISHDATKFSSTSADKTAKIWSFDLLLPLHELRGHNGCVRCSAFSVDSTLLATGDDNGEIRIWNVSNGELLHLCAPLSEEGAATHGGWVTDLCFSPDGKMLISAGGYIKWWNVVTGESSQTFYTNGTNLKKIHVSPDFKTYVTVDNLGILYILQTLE
Nature of the assay: SAR analysis of small molecule Activators of Apaf-1 in a Fluorescent assay. It is filed as functional. Particulars: read-out: EC50_Mean.

Active and inactive are the calls of the source.

Chain of Melanin-concentrating hormone receptor 1 (Q99705 whole entry): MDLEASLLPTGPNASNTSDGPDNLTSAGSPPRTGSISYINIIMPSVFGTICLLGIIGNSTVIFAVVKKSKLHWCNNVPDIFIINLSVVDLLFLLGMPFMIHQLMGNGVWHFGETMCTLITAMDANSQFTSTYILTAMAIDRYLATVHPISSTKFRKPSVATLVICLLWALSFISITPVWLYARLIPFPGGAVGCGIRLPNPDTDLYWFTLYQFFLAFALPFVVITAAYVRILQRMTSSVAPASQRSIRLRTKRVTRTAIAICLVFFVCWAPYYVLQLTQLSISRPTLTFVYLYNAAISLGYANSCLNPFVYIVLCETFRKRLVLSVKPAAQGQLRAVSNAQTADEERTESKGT
Chain of Ras and Rab interactor 1/Tyrosine-protein kinase ABL1 (P00519 whole entry): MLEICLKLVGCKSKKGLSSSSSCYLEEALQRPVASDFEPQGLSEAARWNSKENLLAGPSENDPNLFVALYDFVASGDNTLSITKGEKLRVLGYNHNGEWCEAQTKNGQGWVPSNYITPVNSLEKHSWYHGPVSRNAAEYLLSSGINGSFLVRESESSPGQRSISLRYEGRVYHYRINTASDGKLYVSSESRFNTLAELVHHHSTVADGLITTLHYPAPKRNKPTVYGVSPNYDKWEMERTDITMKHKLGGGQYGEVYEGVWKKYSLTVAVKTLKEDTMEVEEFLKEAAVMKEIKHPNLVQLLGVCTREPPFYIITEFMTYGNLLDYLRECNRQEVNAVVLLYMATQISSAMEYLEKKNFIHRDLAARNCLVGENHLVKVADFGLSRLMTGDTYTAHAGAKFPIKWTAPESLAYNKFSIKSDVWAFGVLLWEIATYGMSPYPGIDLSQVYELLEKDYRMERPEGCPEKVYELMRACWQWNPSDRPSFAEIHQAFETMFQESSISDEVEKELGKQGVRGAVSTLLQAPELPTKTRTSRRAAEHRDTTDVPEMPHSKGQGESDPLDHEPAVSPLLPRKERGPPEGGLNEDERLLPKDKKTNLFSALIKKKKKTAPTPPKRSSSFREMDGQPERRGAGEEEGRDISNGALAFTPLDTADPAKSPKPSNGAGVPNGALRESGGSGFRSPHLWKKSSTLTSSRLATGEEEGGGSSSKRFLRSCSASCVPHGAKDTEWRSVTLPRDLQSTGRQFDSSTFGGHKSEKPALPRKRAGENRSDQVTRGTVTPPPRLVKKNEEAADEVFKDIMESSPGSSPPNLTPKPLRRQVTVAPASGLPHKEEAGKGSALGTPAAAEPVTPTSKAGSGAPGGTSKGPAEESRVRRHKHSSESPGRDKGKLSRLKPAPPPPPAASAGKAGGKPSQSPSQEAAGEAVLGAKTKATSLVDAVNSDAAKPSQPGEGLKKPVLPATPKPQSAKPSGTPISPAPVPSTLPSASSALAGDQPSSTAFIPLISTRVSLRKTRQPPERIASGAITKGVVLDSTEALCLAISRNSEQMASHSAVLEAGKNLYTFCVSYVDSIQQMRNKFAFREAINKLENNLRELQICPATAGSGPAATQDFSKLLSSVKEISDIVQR
Chain of Ras and Rab interactor 1/Tyrosine-protein kinase ABL1 (Q13671 whole entry): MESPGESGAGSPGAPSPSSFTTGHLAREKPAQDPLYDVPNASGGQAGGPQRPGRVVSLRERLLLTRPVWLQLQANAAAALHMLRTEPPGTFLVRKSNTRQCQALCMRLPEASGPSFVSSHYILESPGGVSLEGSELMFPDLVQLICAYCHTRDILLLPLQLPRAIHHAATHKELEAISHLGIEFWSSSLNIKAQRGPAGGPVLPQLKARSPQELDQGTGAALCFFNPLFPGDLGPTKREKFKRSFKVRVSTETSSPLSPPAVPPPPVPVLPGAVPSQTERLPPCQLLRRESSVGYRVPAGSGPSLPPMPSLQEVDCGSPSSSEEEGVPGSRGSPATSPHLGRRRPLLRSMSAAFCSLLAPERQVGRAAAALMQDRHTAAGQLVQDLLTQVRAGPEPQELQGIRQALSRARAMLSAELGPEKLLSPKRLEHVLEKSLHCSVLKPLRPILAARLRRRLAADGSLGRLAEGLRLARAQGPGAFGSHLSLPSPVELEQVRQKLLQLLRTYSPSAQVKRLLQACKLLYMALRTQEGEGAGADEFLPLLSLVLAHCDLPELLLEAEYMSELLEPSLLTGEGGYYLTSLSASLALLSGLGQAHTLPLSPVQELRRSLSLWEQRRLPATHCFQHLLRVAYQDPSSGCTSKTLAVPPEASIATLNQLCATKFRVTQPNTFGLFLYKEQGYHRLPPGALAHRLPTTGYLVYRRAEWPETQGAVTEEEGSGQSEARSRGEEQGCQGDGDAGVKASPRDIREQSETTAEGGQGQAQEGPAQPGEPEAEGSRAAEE

One may read the IC50 as the point on the concentration scale where inhibition reaches its midpoint. Regarding `COc1ccc(C2=NN(c3nc(C(=O)O)cs3)C(O)(C(F)(F)F)C2)c(OC)c1` (configuration not stated), the EC50 in “cells” is > 29.9 µM (inactive). Further, the figures for the IC50 (at Galanin receptor type 3; in assay [1]; in assay [2]) were 10 µM (inactive), 4.74 µM (active) and 7.18 µM (active), respectively.
With `CC(OC(=O)c1ccccc1NCCO)C(=O)Nc1ccnn1C(C)C` (configuration not stated), the IC50 in assay [3] was 3.98 µM (active).
As to `Cc1cc(C)c(NC(=O)c2ccc[n+](Cc3ccc([N+](=O)[O-])cc3)c2)c(C)c1`, the IC50 in assay [1] is 1.5 µM (active); in assay [2], 3.67 µM (active).
Regarding `COc1cccc(Oc2c(Cl)cnn(C3c4ccccc4-c4ccccc43)c2=O)c1`, the IC50 is > 20 µM (inactive) in assay [4] and 9.69 µM (active) in assay [5].
For `O=C(O)CC(CCc1ccccc1)NC(=O)c1ccco1` (configuration not stated), the EC50 in assay [6] was > 100 µM (inactive).
`O=C(C1CCCCN1Cc1c2ccccc2cc2ccccc12)N1CCN(c2ccc([N+](=O)[O-])cc2)CC1` (configuration not stated): the IC50 in assay [4] and in assay [5] was > 20 µM (inactive) each time.

The record behind these values is ChEMBL document CHEMBL1201862, “PubChem BioAssay data set” (2004).
